The nature of data set [1]: Log D7.4 shake flask assay. Type of data set: physicochemical. As to conditions: octanol/PBS, pH 7.4.
A short description of another data set: Chemical stability assay. Type of data set: physicochemical. As to conditions: 37 °C.
A short description of data set [2]: Caco-2 bidirectional permeability assay. As to conditions: human, Caco-2, 10 µM, 37 °C. Background: Caco-2 cells form a polarised layer with tight junctions and transporters.
The test system of data set [3] is MCF7 (EGFR positive cancer cell line). Put plainly: LDH release cytotoxicity / cell viability assay in MCF7. It is filed as cell-based. As to conditions: Homo sapiens. On the technique in general: LDH in the medium is a marker of cell lysis.
[4] abbreviates: buffer pH 2.0, pH 2, Chemical Stability - Half-Life, pH 2.0, 5 µM.
[5] abbreviates: buffer pH 10.0, pH 10, Chemical Stability - Half-Life, pH 10.0, 5 µM.

As usually defined, the solubility is the dissolved amount per volume that the medium holds. A higher solubility goes with a readily soluble substance. As usually defined, the logD is the decadic logarithm of the distribution of all forms, ionised or not, between an organic phase and buffer at a given pH. Usually half-life stands for how long it takes for the measured level to halve. One may read the Papp as the rate of passage across a membrane or cell layer, normalised by area and donor concentration. A lower Papp goes with poor permeation. A word on the IC50: it is the concentration at which inhibition is half-maximal. A higher IC50 goes with lower potency.

Compound `CCCSc1ccc2nc(NC(=O)OC)[nH]c2c1` [Albendazole, albendazole] had a solubility at 24 h in “Thermodynamic solubility” (pH 4.5) of less than 1 µg/mL. The “Thermodynamic Solubility” value in “Thermodynamic solubility” (pH 7.4, PBS, room temperature, 24 h) came to 0.72 ± 0.2 µg/mL. In data set [1], the logD at 4 h was 3.6 ± 0.1.
Consider `COc1ccc2[nH]c([S+]([O-])Cc3ncc(C)c(OC)c3C)nc2c1` (stereo not shown) [Omeprazole], for which the half-life at 5 µM in “Chemical stability assay” (setting [4]) amounted to 10.2 ± 3.1 min; in the data set “Chemical stability assay” (setting [5]), 55.3 ± 11.4 min.
For `CC(C)[N+](C)(CCOC(=O)C1c2ccccc2Oc2ccccc21)C(C)C` [Propantheline bromide], the half-life at 5 µM in “Chemical stability assay” (setting [4]) came out at 82.9 ± 14.8 min; in “Chemical stability assay” (setting [5]), 8.3 ± 2.6 min.
For `CC(C)NCC(O)COc1cccc2ccccc12` (stereo not shown) [Propranolol, propranolol], the Papp at 2 h, 10 µM in data set [2] (Caco-2, pH 7.4, Papp (Apical to Basal), apical to basal) was found to be 29 ± 1.2 ×10⁻⁶ cm/s; in data set [2] (Caco-2, pH 7.4, Papp (Basal to Apical), basal to apical), 21.1 ± 0.3 ×10⁻⁶ cm/s.
For the compound `CC(C)(O)CC(=O)NCCn1ccc2ncnc(Nc3ccc(Oc4cccc(C(F)(F)F)c4)c(Cl)c3)c21` [TAK-285], the IC50 in data set [3] came to 15.5 ± 5.6 µM.

Source of the values: PMC9077134 (OncoTargets and therapy, 2022).
